# Results published in the supplement of paper PMC10307832.
# Tests used:
# Assay in all cases: relative viability (nuclei count vs DMSO), 5 days (fraction); higher = more cells survive
# TGX 221 + OSI-027 = compound: CC1=CN2C(=O)C=C(N=C2C(=C1)C(C)NC3=CC=CC=C3)N4CCOCC4 [TGX 221] + COc1cccc2cc(-c3nc([C@H]4CC[C@H](C(=O)O)CC4)n4ncnc(N)c34)[nH]c12 [OSI-027] (partner 0.5 µM)
# Outline: (§1)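 The day after seeding in 1536-well plates, lung cancer cell lines were treated by pin tool with a single drug, or with a fixed anchor-drug dose together with five library-drug doses (not always all listed) in √10 steps. After 5 days, a combined fix-and-stain solution (final 0.05% Triton X-100, 1% formaldehyde, 1 ug/ml Hoechst) was added. Nuclei counted on 4× images gave relative viability as treated counts over vehicle counts, reported as the median of duplicate plates.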
# [1] = compound: O=C(CCCCCCNC(=O)c1cnc(N(c2ccccc2)c2ccccc2)nc1)NO [Ricolinostat] + CS(=O)(=O)N1CCN(Cc2cc3nc(-c4cccc5[nH]ncc45)nc(N4CCOCC4)c3s2)CC1 [Pictilisib] (partner 1 µM)
# Outline: as §1
# [2] = compound: O=C(CCCCCCNC(=O)c1cnc(N(c2ccccc2)c2ccccc2)nc1)NO [Ricolinostat] + O=C(CCCCCCC(=O)Nc1ccccc1)NO [Vorinostat] (partner 1 µM)
# Outline: as §1
# [3] = compound: C1=CC=C(C(=C1)C2=CC=C(C=C2)C3=CSC4=C3C(=C(C(=O)N4)C#N)O)O + Cc1cc(Nc2cc(N3CCN(C)CC3)nc(Sc3ccc(NC(=O)C4CC4)cc3)n2)n[nH]1 [Tozasertib] (partner 0.1 µM)
# Outline: as §1
Cell Line,relative viability (TGX 221 + OSI-027; first compound 0.08 µM),relative viability (TGX 221 + OSI-027; first compound 0.253 µM),relative viability (TGX 221 + OSI-027; first compound 0.8 µM),relative viability (TGX 221 + OSI-027; first compound 2.53 µM),relative viability (TGX 221 + OSI-027; first compound 8 µM),relative viability ([1]; first compound 0.08 µM),relative viability ([1]; first compound 0.253 µM),relative viability ([1]; first compound 0.8 µM),relative viability ([1]; first compound 2.53 µM),relative viability ([2]; first compound 0.08 µM),relative viability ([2]; first compound 0.253 µM),relative viability ([2]; first compound 0.8 µM),relative viability ([3]; first compound 0.08 µM),relative viability ([3]; first compound 0.253 µM),relative viability ([3]; first compound 0.8 µM),relative viability ([3]; first compound 2.53 µM),relative viability ([3]; first compound 8 µM),relative viability ([2]; first compound 2.53 µM)
NCI-H1993,0.504,0.575,0.579,0.559,0.533,0.645,0.889,0.882,0.239,0.551,0.825,0.693,0.592,0.524,0.534,0.592,0.571,
NCI-H1395,0.542,0.525,0.61,0.475,0.544,,0.636,0.511,0.597,,0.833,0.468,0.666,0.843,0.804,0.716,0.772,0.674
SW 1573,0.511,0.569,0.525,0.513,0.494,0.454,0.504,0.542,0.475,0.554,0.667,0.751,0.175,0.205,0.203,0.152,0.199,0.49
BEN,0.293,0.271,0.276,0.287,0.296,0.462,0.532,0.425,0.354,0.517,0.543,0.592,0.477,0.507,0.747,0.75,0.541,0.498
RERF-LC-KJ,0.567,0.598,0.593,0.574,0.534,0.755,0.637,0.422,0.467,0.583,0.657,0.639,0.488,0.474,0.52,0.527,0.463,0.434
UMC-11,0.502,0.438,0.482,0.458,0.456,0.645,0.859,0.723,0.24,0.389,0.377,0.265,0.203,0.227,0.218,0.321,0.219,0.187
HOP-62,0.787,0.812,0.788,0.807,0.835,0.624,0.749,0.624,0.33,0.572,0.537,0.478,0.363,0.363,0.337,0.335,0.335,0.292
NCI-H2023,0.324,0.328,0.441,0.322,0.275,0.162,0.277,0.183,0.185,0.511,0.544,0.47,0.257,0.38,0.38,0.476,0.439,0.369
NCI-H596,0.748,0.688,0.803,0.487,0.693,0.399,0.399,0.378,0.335,0.61,0.645,0.567,0.888,0.724,1.09,0.89,0.655,0.432
LOU-NH91,0.711,0.72,0.727,0.745,0.701,,0.557,0.492,0.528,,0.955,0.782,0.669,0.715,0.612,0.637,0.645,0.755
COR-L23,0.713,0.777,0.815,0.835,0.715,0.576,0.737,0.697,0.326,0.406,0.383,0.388,0.195,0.213,0.199,0.174,0.153,0.297
